Patent US12325708B2, “Adenosine 2 receptor antagonists” (Nektar Therapeutics, priority 2019, dated 2025)
Like-named read-outs stand apart in the source and are kept apart here.

Legend:
mouse CT-26 cells = assay: Antitumor activity in CT26 subcutaneous tumor model in Balb/c mice; type: in vivo; details: day 13 vs vehicle; 30 mg/kg qdx9 PO + anti-PD1 antibody 200 μg/mouse q2dx4 IP
Description: Mice used were ˜ 6-8 week-old female Balb/c mice subcutaneously inoculated with 2×10^6 mouse CT-26 cells. […] The mice were divided into six treatment groups as follows: vehicle (qdx9) PO+IP, Compound 1 (10 mg/kg, qdx9)+an exemplary anti-mouse PD1 (CD279) antibody (BioXCell) (200 μg/mouse, q2dx4); Compound 1 (30 mg/kg, qdx9)+anti-PD1 antibody (200 μg/mouse, q2dx4), Compound 1 (100 mg/kg)+anti-PD1 antibody (200 μg/mouse, q2dx4), anti-PD1 antibody (200 μg/mouse, q2dx4), or preladenant (30 mg/kg, qdx9)+anti-PD1 antibody (200 μg/mouse, q2dx4). Compound 1 and preladenant were administered orally. The anti-PD1 antibody was administered IP. Body weight was measured daily. Tumor growth of the CT26 cells was monitored three times per week by measuring the tumor volume size using a caliper with the results shown in FIG. 5.

A1 receptor = molecular target: T1, A1 receptor (Homo sapiens, UniProt P30542); assay: Radioligand receptor binding assay, A1 receptor; details: cell membranes overexpressing A1 receptor, read-out: Potency Ki A1
T1 construct: purchased
T1 sequence (P30542 1-326): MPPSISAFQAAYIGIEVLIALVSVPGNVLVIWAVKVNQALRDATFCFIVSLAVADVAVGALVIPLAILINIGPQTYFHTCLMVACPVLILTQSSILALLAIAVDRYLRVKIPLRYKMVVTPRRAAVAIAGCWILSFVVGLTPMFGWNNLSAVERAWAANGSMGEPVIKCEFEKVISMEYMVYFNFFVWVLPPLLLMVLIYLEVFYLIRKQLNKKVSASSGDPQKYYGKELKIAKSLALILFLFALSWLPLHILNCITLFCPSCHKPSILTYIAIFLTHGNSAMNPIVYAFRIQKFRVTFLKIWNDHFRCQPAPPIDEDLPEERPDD
Description: (§1) Using conventional receptor binding assay techniques, Compounds 1-24 were assayed to determine binding activity at the A2A, A1, and A3 receptors with the results shown in Table 7.
(§2) Receptor binding affinity of Compounds 1-24 was measured using radioligand binding assays using commercially obtained cell membranes prepared from cell lines overexpressing the A2A, A1, or A3 receptors. Briefly, cell membrane preparations from cells expressing the specific receptor were mixed with the appropriate [^3H]-labeled tracer for the specific receptor and the test compound or a known inhibitor of receptor-ligand binding. Following 60 min incubation at room temperature to allow receptor-ligand complex formation, the complexes were collected by filtration, washed with 50 mM Tris HCl (pH 7.5) to remove radioligand that was not receptor-bound, and the remaining radioactivity determined by liquid scintillation counting. Specific radioligand binding was calculated for each test compound concentration and IC50 values were determined by non-linear, regression analysis. Inhibition constants (Ki) were calculated using the equation of Cheng and Prusoff using the observed IC50 of the tested compound, the concentration of radioligand employed in the assay and the experimentally determined values for the Kd of the ligand.

[1] = Plasma pharmacokinetic parameters following intravenous (IV) or oral (PO) administration in rats; type: in vivo, Sprague-Dawley rats; details: rat; for Cmax: read-out: Cmax; for Tmax: read-out: Tmax
Description: (§3) Adult male Sprague-Dawley rats (230-250 g) (Charles River Labs, Hollister, CA) were utilized for the study. There were 2 rats/group. All animals were food fasted overnight with water provided ad libitum at all times. Compounds 1, 4, 14 and 19 were synthesized as described in Examples 2, 17, 7, and 12, respectively, and formulated in injectable water.
(§4) The morning of each dosing, individual doses were calculated based on current body weights on the day of dosing. The jugular vein cannula (JVC) and the carotid artery cannula (CAC) were externalized, flushed with HEP/saline (10 IU/mL HEP/mL saline), plugged, and labeled to identify the jugular vein and the carotid artery. The IV group animals were dosed at 0.5 mg/kg of Compound 1, 4, 14 or 19, respectively, intravenously via the jugular vein, while the PO dose was administered 2.5 mg/kg of Compound 1, 4, 14 or 19, respectively, orally via gavage. For the IV group, immediately following the dose of test article, the dead volume of the catheter was flushed with 0.9% saline to ensure the animals received the full dose.
Approximately 0.2 mL of blood was collected per time point from JVC. Blood samples were collected at 2 (IV group only), 5, 15, 30, 60, 120, 240, 360, 420 (Compound 19 only), 480, 720 (Compound 19 only), and 1440 minutes via the CAC and transferred immediately into K2EDTA coated tubes pre-loaded 2 μl with quenching cocktail and placed on wet ice. The samples were centrifuged within 30 min after collection at 10,000 RPM for 5 minutes and the resulting plasma was separated. Plasma was transferred into microfuge tubes and placed on dry ice immediately. The plasma samples were stored at approximately −70° C. until bioanalysis.
Plasma samples were extracted by protein precipitation with acetonitrile containing 0.1% formic acid and doxepin for Compound 1 (available from Sigma-Aldrich) or SCH58261 for Compounds 4, 14 and 19 (available from Sigma-Aldrich) as an internal standard. Following vortex and centrifugation, supernatant was diluted 3-fold with water containing 0.1% formic acid and analyzed by LC-MS/MS.
Pharmacokinetic parameters (PK) were determined by non-compartmental analysis (NCA) using Phoenix 64 WinNonlin (version 8) and Dotmatics (version 5.0). Nominal doses and time points were used for the analysis.
The following PK parameters were estimated using plasma concentration-time profile of each animal with the results presented in Table 3: • AUCinf Area under the concentration-time from zero to time infinity • AUClast Area under the concentration-time from zero to time of last concentration value • F Bioavailability • CL Total body clearance • Cmax Maximum (peak) concentration • MRTlast Mean residence time to last observable concentration • Tmax Time to reach maximum or peak concentration following administration • Vss Volume of distribution at steady state
as §3, with “Compound 1 was” for “Compounds 1, 4, 14 and 19 were”, “Example 2” for “Examples 2, 17, 7, and 12, respectively,”
as §4, with “1” for “1, 4, 14 or 19, respectively,”
Approximately 0.2 mL of blood was collected per time point from JVC. […]

A2A receptor = molecular target: T2, A2A receptor (Homo sapiens, UniProt P29274); assay: Radioligand receptor binding assay, A2A receptor; details: cell membranes overexpressing A2A receptor, read-out: Potency Ki A2A
T2 construct: purchased
Description: as §1, §2

[2] = Brain-to-plasma ratio (B/P) after administration; type: in vivo, Sprague-Dawley rats; details: Sprague-Dawley, rat, brain-to-plasma ratio at 1 h
From the text: A similar unexpected result was obtained when the phenyl ring present on Compound 1 was replaced with a halogen substituted pyridine. The halogen was previously introduced on the phenyl ring with the aim of blocking a possible metabolic soft-spot, with similar results observed as for Compound 1 in terms of exposure, clearance and bioavailability (Compound 10 and Compound 15). The substituted pyridine ring was designed to modulate the lipophilicity and polar surface area, as well as to address metabolic soft-spot concerns. Clearance and bioavailability parameters remain similar between substituted phenyl and pyridine (Compound 4 and Compound 14) analogs, which span a range in cLogP of 2.7-3.2. It was therefore surprising the significant improvement in exposure and clearance observed for the more lipophilic Compound 19. […] A compound is commonly deemed to be a brain penetrant if the brain-to-blood/plasma concentration ratio (B/P) is greater than 0.04 using methods as known in the art (Schaffer, Annual Reports in Medicinal Chemistry, 45:55-70, 2010).
Plasma pharmacokinetic parameters were determined following oral (PO) administration of further compounds essentially as described in Example 28 with the results shown in Table 6.

[3] = male, Sprague-Dawley, plasma, 2.5 mg/kg, Table 6, oral (PO) administration essentially as described in Example 28
[4] = male, Sprague-Dawley, plasma, intravenous, 0.5 mg/kg, Table 6, essentially as described in Example 28
[5] = male, Sprague-Dawley, plasma, po, 2.5 mg/kg, Table 6, oral (PO) administration essentially as described in Example 28
[6] = male, Sprague-Dawley, plasma, intravenous, 0.5 mg/kg, Table 2 summary of Example 27, values marked 1 are the average of experiments
[7] = male, Sprague-Dawley, plasma, iv, 0.5 mg/kg, IV 0.5 mg/kg, injectable water
[8] = male, Sprague-Dawley, plasma, oral, 2.5 mg/kg, Table 2 summary of Example 27, values marked 1 are the average of experiments
[9] = male, Sprague-Dawley, plasma, po, 2.5 mg/kg, PO 2.5 mg/kg via gavage, injectable water

T2 sequence (P29274 whole entry): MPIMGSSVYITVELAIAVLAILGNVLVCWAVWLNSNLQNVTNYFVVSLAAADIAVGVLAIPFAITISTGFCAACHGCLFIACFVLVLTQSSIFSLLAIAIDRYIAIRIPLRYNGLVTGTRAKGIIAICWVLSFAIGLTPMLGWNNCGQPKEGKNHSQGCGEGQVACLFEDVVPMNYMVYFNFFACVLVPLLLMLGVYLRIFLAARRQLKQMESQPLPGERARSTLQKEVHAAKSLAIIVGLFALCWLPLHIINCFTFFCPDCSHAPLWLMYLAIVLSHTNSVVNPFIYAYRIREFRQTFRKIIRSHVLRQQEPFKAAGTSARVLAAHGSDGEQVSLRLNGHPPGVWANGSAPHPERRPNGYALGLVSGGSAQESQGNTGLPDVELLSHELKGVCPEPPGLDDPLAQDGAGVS

With Preladenant [reference compound] the “% TGI” value (mouse CT-26 cells) was 56^3%.
`COCCOc1ccc(N2CCN(CCN(C)c3nc(N)n4nc(-c5ncco5)nc4n3)CC2)cc1` [Compound 2, N^5-(2-{4-[4-(2-methoxyethoxy)phenyl]piperazin-1-yl}ethyl)-N^5-methyl-2-(1,3-oxazol-2-yl)[1,2,4]triazolo[1,5-a][1,3,5]triazine-5,7-diamine] showed a Ki (A1 receptor) of 13000 nM, an AUC [1, 3] of 320 ng·h/mL and a clearance [1, 4] of 54 mL/min/kg. It also gave a bioavailability [1, 5] of 43%, a Ki (A2A receptor) of 7 nM and a Kp at 1 h ([2]; oral, 2.5 mg/kg, Table 6) of 0.04.
`[2H]C([2H])([2H])OCCOc1ccc(N2CCN(CCN(C)c3cc4nc(-c5ncco5)nn4c(N)n3)CC2)cc1` [Compound 7, N^7-methyl-N^7-{2-[4-(4-{2-[(^2H3)methyloxy]ethoxy}phenyl)piperazin-1-yl]ethyl}-2-(1,3-oxazol-2-yl)[1,2,4]triazolo[1,5-c]pyrimidine-5,7-diamine] showed a Ki (A1 receptor) greater than 4000 nM, an AUC [1, 3] of 1020 ng·h/mL and a clearance [1, 4] of 24 mL/min/kg. It also gave a bioavailability [1, 5] of 60%, a Ki (A2A receptor) of 13 nM and a Kp at 1 h ([2]; oral, 2.5 mg/kg, Table 6) of 0.07.
Molecule `COCCOc1cnc(N2CCN(CCN(C)c3cc4nc(-c5ncco5)nn4c(N)n3)CC2)c(C(F)(F)F)c1` [Compound 19, N^7-(2-{4-[5-(2-methoxyethoxy)-3-(trifluoromethyl)pyridin-2-yl]piperazin-1-yl}ethyl)-N^7-methyl-2-(1,3-oxazol-2-yl)[1,2,4]triazolo[1,5-c]pyrimidine-5,7-diamine] has a Ki (A1 receptor) of 16000 nM, a clearance [1, 6] of 7 mL/min/kg and an AUC(0-inf) [1, 7] of 1230 ng·h/mL. It also gave an AUC(0-t) [1, 7] of 1220 ng·h/mL, an MRT last [1, 7] of 1.48 h and a clearance [1, 7] of 6.85 mL/min/kg. It also gave a Cmax [1, 7] of 1020 ng/mL, a Tmax [1, 7] of 0.033 h and a Vd ([1]; male, Sprague-Dawley, plasma, iv, 0.5 mg/kg, IV 0.5 mg/kg, injectable water, read-out: Vss obs) of 0.635 L/kg. For the same molecule, the AUC [1, 8] was 4980 ng·h/mL, the bioavailability [1, 8] was 83% and the AUC(0-inf) [1, 9] was 5050 ng·h/mL. The AUC(0-t) [1, 9] was 4980 ng·h/mL, the MRT last [1, 9] was 2.65 h and the Cmax [1, 9] was 1300 ng/mL. For the same molecule, the Tmax [1, 9] was 1.25 h, the “Total clearance as % liver blood flow” value ([1]; IV) was roughly 10 % liver blood flow and the MRTlast ([1]; IV 0.5 mg/kg, injectable water, 0.5 mg/kg) was 1.4825 h. The CL ([1]; PO 2.5 mg/kg row of Table 3) was 9.05 mL/min/kg, the F ([1]; PO 2.5 mg/kg vs IV 0.5 mg/kg) was 82.7% and the Ki (A2A receptor) was 4 nM. It also gave a Kp at 1 h ([2]; Table 2) of 0.01.
In the case of `COCCOc1ncc(N2CCN(CCN(C)c3cc4nc(-c5ncco5)nn4c(N)n3)CC2)cc1C(F)(F)F` [Compound 22, N^7-(2-{4-[6-(2-methoxyethoxy)-5-(trifluoromethyl)pyridin-3-yl]piperazin-1-yl}ethyl)-N^7-methyl-2-(1,3-oxazol-2-yl)[1,2,4]triazolo[1,5-c]pyrimidine-5,7-diamine], the Ki (A1 receptor) is reported as 3200 nM, the AUC [1, 3] is reported as 280 ng·h/mL and the clearance [1, 4] is reported as 38 mL/min/kg. The bioavailability [1, 5] was 25%, the Ki (A2A receptor) was 11 nM and the Kp at 1 h ([2]; oral, 2.5 mg/kg, Table 6) was 0.03.
Molecule `COCCOc1ccc(N2CCN(CCN(C)c3cc4nc(-c5ccco5)nn4c(N)n3)CC2)cc1` [Reference compound, 2-(furan-2-yl)-N^7-(2-(4-(4-(2-methoxyethoxy)phenyl)piperazin-1-yl)ethyl)-N^7-methyl-[1,2,4]triazolo[1,5-c]pyrimidine-5,7-diamine, reference compound] has a Ki (A1 receptor) of 1270 nM, a clearance [1, 6] of 34 mL/min/kg and an AUC [1, 8] of 408 ng·h/mL. For the same molecule, the bioavailability [1, 8] was 34%, the Ki (A2A receptor) was 2.6 nM and the Kp at 1 h ([2]; Table 2) was 0.17.
